Test results from PubChem BioAssay AID248 (DTP/NCI, 2004).
Values joined by “and” are separate entries in the source; they are usually repeats but may differ in a detail not shown here. Equal entries are not always repeated. Inconclusive results and toxic doses are left out. Cut-off read from the data, not from the text of the source: active = T/C of 150% or more; inactive = T/C below 125%.

Tested on: L1210 leukemia ip in BDF1 mice, survival T/C
Assay: NCI In Vivo Anticancer Drug Screen. Data for tumor model L1210 Leukemia (intraperitoneal) in B6D2F1 (BDF1) mice
Details: higher = longer survival
Method in brief: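 Value reflects the ratio of survival in compound-treated mice to survival in vehicle-treated controls, with both groups carrying the same transplanted tumor.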

[1] = endpoint: mean survival time, dose: 400.0 mg/kg/injection, schedule: Q01DX001 (ip), vehicle: saline with Tween-80
[2] = endpoint: mean survival time, dose: 100.0 mg/kg/injection, schedule: Q04DX002 (ip), vehicle: saline with Tween-80
[3] = endpoint: mean survival time, dose: 200.0 mg/kg/injection, schedule: Q04DX002 (ip), vehicle: saline with Tween-80
[4] = endpoint: mean survival time, dose: 400.0 mg/kg/injection, schedule: Q04DX002 (ip), vehicle: saline with Tween-80
[5] = endpoint: mean survival time, dose: 100.0 mg/kg/injection, schedule: Q01DX009 (ip), vehicle: saline with Tween-80
[6] = endpoint: mean survival time, dose: 100.0 mg/kg/injection, schedule: Q04DX003 (ip), vehicle: saline with Tween-80
[7] = endpoint: mean survival time, dose: 200.0 mg/kg/injection, schedule: Q01DX009 (ip), vehicle: saline with Tween-80
[8] = endpoint: mean survival time, dose: 200.0 mg/kg/injection, schedule: Q04DX003 (ip), vehicle: saline with Tween-80
[9] = endpoint: mean survival time, dose: 400.0 mg/kg/injection, schedule: Q01DX009 (ip), vehicle: saline with Tween-80
[10] = endpoint: mean survival time, dose: 400.0 mg/kg/injection, schedule: Q04DX003 (ip), vehicle: saline with Tween-80
[11] = endpoint: mean survival time, dose: 100.0 mg/kg/injection, schedule: Q04DX003 (ip), vehicle: saline
[12] = endpoint: mean survival time, dose: 200.0 mg/kg/injection, schedule: Q04DX003 (ip), vehicle: saline
[13] = endpoint: mean survival time, dose: 400.0 mg/kg/injection, schedule: Q04DX003 (ip), vehicle: saline
[14] = endpoint: mean survival time, dose: 100.0 mg/kg/injection, schedule: Q01DX009 (ip), vehicle: saline
[15] = endpoint: mean survival time, dose: 25.0 mg/kg/injection, schedule: Q01DX009 (ip), vehicle: saline with Tween-80
[16] = endpoint: mean survival time, dose: 50.0 mg/kg/injection, schedule: Q01DX009 (ip), vehicle: saline with Tween-80
[17] = endpoint: mean survival time, dose: 100.0 mg/kg/injection, schedule: Q04DX003 (ip), vehicle: Klucel (hydroxypropylcellulose) (HPC)
[18] = endpoint: mean survival time, dose: 100.0 mg/kg/injection, schedule: Q01DX001 (ip), vehicle: saline with Tween-80

Measured: T/C

CC(C)(NC(=O)N(CCCl)N=O)C(=O)O
inactive: endpoint: mean survival time, dose: 15.0 mg/kg/injection, schedule: Q01DX001 (ip), vehicle: saline with Tween-80 103 % of control | endpoint: mean survival time, dose: 23.0 mg/kg/injection, schedule: Q01DX001 (ip), vehicle: saline with Tween-80 115 % of control | endpoint: mean survival time, dose: 36.0 mg/kg/injection, schedule: Q01DX001 (ip), vehicle: saline with Tween-80 119 % of control | endpoint: mean survival time, dose: 266.0 mg/kg/injection, schedule: Q01DX001 (ip), vehicle: saline with Tween-80 123 % of control
active: endpoint: mean survival time, dose: 119.0 mg/kg/injection, schedule: Q01DX001 (ip), vehicle: saline with Tween-80 227 % of control | endpoint: mean survival time, dose: 178.0 mg/kg/injection, schedule: Q01DX001 (ip), vehicle: saline with Tween-80 339 % of control | [1] 352 % of control

O=C(Nc1nccs1)c1cccc(F)c1
inactive: endpoint: mean survival time, dose: 100.0 mg/kg/injection, schedule: Q01DX009 (ip), vehicle: Klucel (hydroxypropylcellulose) (HPC) 104 % of control | endpoint: mean survival time, dose: 200.0 mg/kg/injection, schedule: Q01DX009 (ip), vehicle: Klucel (hydroxypropylcellulose) (HPC) 110 % of control | endpoint: mean survival time, dose: 400.0 mg/kg/injection, schedule: Q01DX009 (ip), vehicle: Klucel (hydroxypropylcellulose) (HPC) 112 % of control

CCCNC(=O)c1cc(NC(=O)Nc2ccc(C3=NCCCN3)cc2)cc(NC(=O)Nc2ccc(C3=NCCCN3)cc2)c1
inactive: endpoint: mean survival time, dose: 21.0 mg/kg/injection, schedule: Q01DX Z (ip), vehicle: carboxymethylcellulose (CMC) 115 % of control | endpoint: mean survival time, dose: 42.0 mg/kg/injection, schedule: Q01DX Z (ip), vehicle: carboxymethylcellulose (CMC) 113 % of control | endpoint: mean survival time, dose: 84.0 mg/kg/injection, schedule: Q01DX Z (ip), vehicle: carboxymethylcellulose (CMC) 117 % of control

CN(C)C(=S)SCC(=O)NC(CO)C(=O)O (stereo not given)
inactive: [2] 100 % of control | [3] 107 % of control | [4] 111 % of control

COC(=O)c1ccccc1NCCCC(=O)O
inactive: [5] 97 % of control | [6] 103 % of control | [7] 97 % of control | [8] 97 % of control | [9] 102 % of control | [10] 98 % of control

O=S(=O)(O)c1ccc(-c2ccc([As](=O)(O)O)cc2)cc1
inactive: [2] 95 % of control | [3] 103 % of control | [4] 87 % of control

OCC(Cl)(Cl)Cl
inactive: [11] 104 % of control | [12] 96 % of control | [13] 107 % of control

CCN(CC)CCOc1cccc(Oc2ccccc2)c1
inactive: endpoint: mean survival time, dose: 50.0 mg/kg/injection, schedule: Q01DX009 (ip), vehicle: saline 96 % of control | [14] 117 % of control | [11] 98 % of control

CC(C)C(C(=O)O)N1C(=O)C2C3CCC(C3)C2C1=O (stereo not given)
inactive: endpoint: mean survival time, dose: 25.0 mg/kg/injection, schedule: Q04DX003 (ip), vehicle: saline 86 % of control | endpoint: mean survival time, dose: 50.0 mg/kg/injection, schedule: Q04DX003 (ip), vehicle: saline 93 % of control | [6] 89 % of control | [11] 96 % of control | [8] 103 % of control | [10] 98 % of control

CC(c1ccccc1)N(N=O)C(=O)c1ccc2ccccc2c1 (stereo not given)
inactive: endpoint: mean survival time, dose: 17.0 mg/kg/injection, schedule: Q04DX002 (ip), vehicle: saline 94 % of control | endpoint: mean survival time, dose: 33.0 mg/kg/injection, schedule: Q04DX002 (ip), vehicle: saline 105 % of control | endpoint: mean survival time, dose: 66.0 mg/kg/injection, schedule: Q04DX002 (ip), vehicle: saline 97 % of control

COC(=O)C(F)C(Br)C(=O)OC (stereo not given)
inactive: endpoint: mean survival time, dose: 3.12 mg/kg/injection, schedule: Q01DX009 (ip), vehicle: saline with Tween-80 114 % of control | endpoint: mean survival time, dose: 6.25 mg/kg/injection, schedule: Q01DX009 (ip), vehicle: saline with Tween-80 101 % of control | endpoint: mean survival time, dose: 12.5 mg/kg/injection, schedule: Q01DX009 (ip), vehicle: saline with Tween-80 103 % of control | [15] 97 % of control | [16] 101 % of control

ClC(CCC(Cl)c1ccccc1)c1ccccc1 (stereo not given)
inactive: endpoint: mean survival time, dose: 100.0 mg/kg/injection, schedule: Q04DX002 (ip), vehicle: Klucel (hydroxypropylcellulose) (HPC) 101 % of control | endpoint: mean survival time, dose: 200.0 mg/kg/injection, schedule: Q04DX002 (ip), vehicle: Klucel (hydroxypropylcellulose) (HPC) 104 % of control | endpoint: mean survival time, dose: 400.0 mg/kg/injection, schedule: Q04DX002 (ip), vehicle: Klucel (hydroxypropylcellulose) (HPC) 101 % of control

CC(=O)Nn1nnnc1N
inactive: [11] 99 % of control | [12] 91 % of control | [13] 105 % of control

CCOC(=O)c1ccc(OC(=O)Nc2ccc(Cl)cc2OC)cc1
inactive: [14] 87 % of control | endpoint: mean survival time, dose: 200.0 mg/kg/injection, schedule: Q01DX009 (ip), vehicle: saline 100 % of control

CCN1C(=O)CC(SC2CC(=O)N(CC)C2=O)C1=O (stereo not given)
inactive: endpoint: mean survival time, dose: 100.0 mg/kg/injection, schedule: Q01DX001 (ip), vehicle: carboxymethylcellulose (CMC) 100 % of control | endpoint: mean survival time, dose: 200.0 mg/kg/injection, schedule: Q01DX001 (ip), vehicle: carboxymethylcellulose (CMC) 94 % of control | endpoint: mean survival time, dose: 400.0 mg/kg/injection, schedule: Q01DX001 (ip), vehicle: carboxymethylcellulose (CMC) 94 % of control

CC(=O)S[C@@H]1CC2=CC(=O)CC[C@]2(C)[C@H]2CC[C@@]3(C)[C@@H](CC[C@@]34CCC(=O)O4)[C@H]12
inactive: endpoint: mean survival time, dose: 45.0 mg/kg/injection, schedule: Q01DX009 (sc), vehicle: steriod suspending solution 107 % of control | endpoint: mean survival time, dose: 90.0 mg/kg/injection, schedule: Q01DX009 (sc), vehicle: steriod suspending solution 102 % of control | [17] 90 % of control | endpoint: mean survival time, dose: 180.0 mg/kg/injection, schedule: Q01DX009 (sc), vehicle: steriod suspending solution 100 % of control | endpoint: median survival time, dose: 100.0 mg/kg/injection, schedule: Q01DX001 (ip), vehicle: water 97 % of control | endpoint: median survival time, dose: 100.0 mg/kg/injection, schedule: Q01DX009 (sc), vehicle: steriod suspending solution 101 % of control | endpoint: median survival time, dose: 200.0 mg/kg/injection, schedule: Q01DX001 (ip), vehicle: water 91 % of control | endpoint: median survival time, dose: 200.0 mg/kg/injection, schedule: Q01DX009 (sc), vehicle: steriod suspending solution 95 % of control | endpoint: median survival time, dose: 400.0 mg/kg/injection, schedule: Q01DX001 (ip), vehicle: water 97 % of control | endpoint: median survival time, dose: 400.0 mg/kg/injection, schedule: Q01DX009 (sc), vehicle: steriod suspending solution 96 % of control

COc1cc([N+](=O)[O-])ccc1S(=O)(=O)Cl
inactive: [15] 91 % of control | endpoint: mean survival time, dose: 25.0 mg/kg/injection, schedule: Q04DX002 (ip), vehicle: saline with Tween-80 104 % of control | endpoint: mean survival time, dose: 25.0 mg/kg/injection, schedule: Q04DX003 (ip), vehicle: saline with Tween-80 97 % of control | endpoint: mean survival time, dose: 50.0 mg/kg/injection, schedule: Q01DX001 (ip), vehicle: saline with Tween-80 101 % of control | [16] 91 % of control | endpoint: mean survival time, dose: 50.0 mg/kg/injection, schedule: Q04DX002 (ip), vehicle: saline with Tween-80 93 % of control and 120 % of control | endpoint: mean survival time, dose: 50.0 mg/kg/injection, schedule: Q04DX003 (ip), vehicle: saline with Tween-80 103 % of control | [18] 92 % of control | [6] 94 % of control | [8] 88 % of control

CC#CS(=O)(=O)c1ccccc1
inactive: [17] 94 % of control | endpoint: mean survival time, dose: 200.0 mg/kg/injection, schedule: Q04DX003 (ip), vehicle: Klucel (hydroxypropylcellulose) (HPC) 95 % of control | endpoint: mean survival time, dose: 400.0 mg/kg/injection, schedule: Q04DX003 (ip), vehicle: Klucel (hydroxypropylcellulose) (HPC) 98 % of control

Nc1nc(N)c2nnsc2n1
inactive: [18] 101 % of control | endpoint: mean survival time, dose: 200.0 mg/kg/injection, schedule: Q01DX001 (ip), vehicle: saline with Tween-80 96 % of control | [1] 90 % of control

CCOC(=O)CC(O)(COC)c1ccccc1 (stereo not given)
inactive: endpoint: mean survival time, dose: 50.0 mg/kg/injection, schedule: Q01DX001 (ip), vehicle: saline 114 % of control | endpoint: mean survival time, dose: 100.0 mg/kg/injection, schedule: Q01DX001 (ip), vehicle: saline 100 % of control | endpoint: mean survival time, dose: 200.0 mg/kg/injection, schedule: Q01DX001 (ip), vehicle: saline 109 % of control | endpoint: mean survival time, dose: 400.0 mg/kg/injection, schedule: Q01DX001 (ip), vehicle: saline 97 % of control

c1ccc(CC2SCCCS2)cc1
inactive: [5] 103 % of control | [6] 108 % of control | [7] 88 % of control | [8] 95 % of control | [9] 99 % of control | [10] 95 % of control

CC1Oc2ccccc2OC1C(=O)NN (stereo not given)
inactive: [6] 95 % of control | [8] 97 % of control | [10] 106 % of control
